The values below come from patent US11884627B2, “Compounds and compositions for treating conditions associated with LPA receptor activity” (Lhotse Bio, Inc., priority 2022, dated 2024).

Broadly, the IC50 is the concentration needed to halve the response being measured.

This assay has as its target T1, human LPA1 (Homo sapiens, UniProt Q92633).
T1 construct: expressed in transfected cells; host or cells: CHO-K1
Nature of the assay: In vitro LPA1 calcium flux antagonist assay - Bioduro protocol. Type of assay: cell-based. As to conditions: CHO-K1 cells overexpressing human LPA1 and G15a, LPA challenge at EC80. A digest of the protocol: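 CHO-K1 cells overexpressing human LPA1 and G15a, serum-starved 4 h, loaded with Fluo-8 AM plus 2.5 mM probenecid in HBSS/20 mM Hepes for 30 min at 37 °C. Compound preincubated 30 min, then LPA challenge at EC80; FLIPR calcium signal, % inhibition relative to DMSO and LPA controls.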
On the technique in general: A change in cytosolic calcium serves as a functional read-out for many receptors and channels.

Setting [1] is: calcium mobilization on FLIPR Tetra, read-out: IC50.
Where [2] appears, read: Table B3, read-out: Activity (IC50 class).

Where two headings read alike, the source gives them in different places. Bounds are passed on as bounds.

T1 sequence (Q92633 whole entry): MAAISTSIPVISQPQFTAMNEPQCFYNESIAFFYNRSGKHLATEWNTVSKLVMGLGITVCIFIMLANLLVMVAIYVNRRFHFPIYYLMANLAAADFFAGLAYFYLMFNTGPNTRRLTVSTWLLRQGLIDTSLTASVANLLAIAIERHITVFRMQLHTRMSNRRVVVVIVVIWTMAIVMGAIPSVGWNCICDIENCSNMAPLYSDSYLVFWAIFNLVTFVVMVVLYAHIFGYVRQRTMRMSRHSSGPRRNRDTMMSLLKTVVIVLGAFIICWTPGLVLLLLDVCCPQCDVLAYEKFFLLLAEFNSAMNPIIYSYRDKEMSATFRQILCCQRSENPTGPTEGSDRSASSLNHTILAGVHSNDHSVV

Take `CCOc1c(C)c(OC)cc(-c2ccc(NC3(C(=O)O)CC3)cc2COC2CC2)c1F` [Compound 361]: the IC50 was 75.6 nM under setting [1] and less than 100 nM under setting [2].
`COc1cc(-c2ccc(NC3(C(=O)O)CCOCC3)cc2COC2(C)CCCC2)c(C)c(OC)c1C` [Compound 212]: the IC50 was 11.2 nM under setting [1] and less than 100 nM under setting [2].
Regarding `COc1cc(-c2ccc(NC3(C(=O)O)CCC(C)(OC)CC3)cc2COC2CCCC2)c(F)c(OC)c1C` (single isomer, unassigned) [Compound 238], the IC50 is 268 nM under setting [1] and 100 to 1000 nM under setting [2].
As for `COc1cc(OC)c(F)c(-c2ccc(NC3(C(=O)O)CCOCC3)cc2COC2CC2)c1` [Compound 292], the IC50 runs as follows: under setting [1], 117 nM; under setting [2], 100 to 1000 nM.
In the case of `COc1cc(-c2c(COC3CCCC3)cc(NC3(C(=O)O)CCOCC3)cc2OC)cc(OC)c1C` [Compound 175], the IC50 by setting is: under setting [1], 175 nM; under setting [2], 100 to 1000 nM.
`COc1cc(-c2c(F)cc(NC3(C(=O)O)CCOCC3)cc2COC2CCCC2)c(F)c(OC)c1C` [Compound 168]: the IC50 reads like this: under setting [1], 27.6 nM; under setting [2], less than 100 nM.
Consider `COc1cc(-c2ccc(NC3(C(=O)O)CCOCC3)cc2COC2CCCC2)c(Cl)c(OC)n1` [Compound 207, 4-((4-(3-chloro-2,6-dimethoxypyridin-4-yl)-3-((cyclopentyloxy)methyl)phenyl)amino)tetrahydro-2H-pyran-4-carboxylic acid], for which the concentration for half-maximal inhibition (IC50) is 30.4 nM under setting [1] and less than 100 nM under setting [2].
`CCc1cccc(-c2ccc(NC3(C(=O)O)CCOCC3)cc2COC2CC2)c1F` [Compound 327]: the IC50 under setting [1] is 412 nM and the IC50 under setting [2] lay in the range of 100 to 1000 nM.
For the compound `COc1cc(OC2CC2)cc(-c2ccc(NC3(C(=O)O)CCOCC3)cc2COC2CCCC2)c1` [Compound 331], the IC50 by setting is: under setting [1], 9.37 nM; under setting [2], less than 100 nM.
Consider `CCOc1ccnc(-c2ccc(NC3(C(=O)O)CCOCC3)cc2COC2CC2)c1C(F)F` [Compound 323], for which the IC50 is, setting by setting: under setting [1], 833 nM; under setting [2], 100 to 1000 nM.
Turning to `COc1cc(-c2ccc(NC3(C(=O)O)CC(O)C3)cc2COC2Cc3ccccc3C2)cc(OC)c1C` (centres unmarked) [Compound 131], the IC50 is 190 nM under setting [1] and 100 to 1000 nM under setting [2].
On to `COc1cc(-c2ccc(NC3(C(=O)O)CCOCC3)cc2COC2CC2)cc(OC2CC2)c1C` [Compound 341], for which the concentration for half-maximal inhibition (IC50) is, setting by setting: under setting [1], 214 nM; under setting [2], 100 to 1000 nM.
With `CCOc1cncc(-c2ccc(OC3(C(=O)O)CCOCC3)cc2COC2CC2)c1C(F)F` [Compound 415], the IC50 was 66.2 nM under setting [1] and less than 100 nM under setting [2].
As to `COc1cc(-c2ccc(NC3(C(=O)O)CCOCC3)cc2COC2CCCC2)c(F)cc1C` [Compound 319], the IC50 was 76.7 nM under setting [1] and less than 100 nM under setting [2].
Turning to `CCCc1cccc(-c2ccc(NC3(C(=O)O)CCOCC3)cc2COC2CC2)c1F` [Compound 326], the IC50 runs as follows: under setting [1], 124 nM; under setting [2], 100 to 1000 nM.
In the same order, the values of `COC(=O)N1CCC(Nc2ccc(-c3cc(OC)c(C)c(OC)c3)c(COC3CCCC3)c2)(C(=O)O)CC1` [Compound 140, 4-((2-((cyclopentyloxy)methyl)-3′,5′-dimethoxy-4′-methyl-[1,1′-biphenyl]-4-yl)amino)-1-(methoxycarbonyl)piperidine-4-carboxylic acid] are 28.8 nM and less than 100 nM.
For the compound `COc1cc(OC)cc(-c2ccc(NC3(C(=O)O)CCOCC3)cc2COC2COc3ccccc32)c1` (single isomer, unassigned) [Compound 158], the IC50 is 46.3 nM under setting [1] and less than 100 nM under setting [2].
On to `CCOc1cccc(-c2ccc(NC3(C(=O)O)CC3)cc2COC2CC2)c1C` [Compound 360], for which the IC50 runs as follows: under setting [1], 75.5 nM; under setting [2], less than 100 nM.
On to `COc1cc(-c2ccc(NC3(C(=O)O)CCOCC3)cc2CO[C@@H]2CCC[C@H]2OC)c(C)c(OC)c1C` (racemic) [Compound 204], for which the IC50 under setting [1] amounted to 163 nM and the IC50 under setting [2] was 100 to 1000 nM.
Consider `CCOc1cncc(-c2ccc(NC3(C(=O)O)CCC(F)(F)CC3)cc2COC2CC2)c1C(F)F` [Compound 406], for which the IC50 under setting [1] was found to be 20 nM and the IC50 under setting [2] was less than 100 nM.
In the same order, the values of `O=C(O)C1(Nc2ccc(-c3cccc(OC4CC4)c3C(F)F)c(COC3CC3)c2)CC1` [Compound 325] are 59.6 nM and less than 100 nM.
On to `COc1c(C)c(OC)c(F)c(-c2ccc(NC3(C(=O)O)CCOCC3)cc2COC2CCCC2)c1F` [Compound 270], for which the IC50 runs as follows: under setting [1], 79.8 nM; under setting [2], less than 100 nM.
As to `COc1cc(OC)c(F)c(-c2ccc(NC3(C(=O)O)CCOCC3)cc2CCC2CCCC2)c1` [Compound 228], the IC50 runs as follows: under setting [1], 2.63 nM; under setting [2], less than 100 nM.
The corresponding values for `COc1cc(-c2ccc(NC3(C(=O)O)CC(OC)C3)cc2COC2CCCC2)c(C)c(OC)c1C` (centres unmarked) [Compound 196] are 30.1 nM and less than 100 nM.
In the case of `COC(=O)N1CC(Nc2ccc(-c3cc(OC)c(C)c(OC)c3)c(COC3Cc4ccccc4C3)c2)(C(=O)O)C1` [Compound 129], the IC50 runs as follows: under setting [1], 17.2 nM; under setting [2], less than 100 nM.
Turning to `COc1cc(OC2CC2)cc(-c2ccc(NC3(C(=O)O)CCOCC3)cc2COC2CCCC2)c1F` [Compound 250], the half-inhibitory concentration (IC50) was 31.7 nM under setting [1] and less than 100 nM under setting [2].
Consider `COc1cc(-c2ccc(NC3(C(=O)O)CCOCC3)cc2COCC2CCC2)c(F)c(OC)c1C` [Compound 353], for which the IC50 was 8.39 nM under setting [1] and less than 100 nM under setting [2].
Regarding `CCOc1cccc(-c2ccc(NC3(C(=O)O)CCOCC3)cc2CCC2CCOC2)c1F` (centres unmarked) [Compound 267], the IC50 is, setting by setting: under setting [1], 68 nM; under setting [2], less than 100 nM.
For `CCOc1cccc(-c2ccc(NC3(C(=O)O)CCOCC3)cc2CCC2CCCC2)c1F` [Compound 272], the half-inhibitory concentration (IC50) is 6.96 nM under setting [1] and less than 100 nM under setting [2].
For the compound `CCOc1cc(-c2ccc(NCCC(=O)O)cc2COC2Cc3ccccc3C2)cc(OCC)c1C` [Compound 113], the IC50 is 7130 nM under setting [1] and more than 1000 nM under setting [2].
`CCOc1cccc(-c2ccc(NC3(C(=O)O)CCC3)cc2COC2CC2)c1C(F)F` [Compound 333]: the IC50 under setting [1] is 10.3 nM and the IC50 under setting [2] is less than 100 nM.
Turning to `COc1cc(OC)c(C(F)F)c(-c2ccc(NC3(C(=O)O)CCOCC3)cc2COC2CC2)c1` [Compound 302], the IC50 runs as follows: under setting [1], 85.2 nM; under setting [2], 100 to 1000 nM.
As for `COc1cc(OC)c(Cl)c(-c2c(F)cc(NC3(C(=O)O)CCOCC3)cc2COC2CCCC2)c1` [Compound 174], the IC50 is, setting by setting: under setting [1], 29.3 nM; under setting [2], less than 100 nM.
As to `COc1cc(-c2ccc(NC3(C(=O)O)CCOCC3)cc2COCC2CC2)c(F)c(OC)c1C` [Compound 364], the IC50 is 82.9 nM under setting [1] and less than 100 nM under setting [2].
As to `COc1cc(OC)nc(-c2c(C)cc(NC3(C(=O)O)CCOCC3)cc2COC2CCCC2)n1` [Compound 178], the IC50 reads like this: under setting [1], 1320 nM; under setting [2], more than 1000 nM.
`COc1cc(-c2c(C)cc(NC3(C(=O)O)CCOCC3)cc2COC2CCCC2)c(C)c(OC)c1C` [Compound 149]: the IC50 was 88 nM under setting [1] and less than 100 nM under setting [2].
`CCCCOCc1cc(NC2(C(=O)O)CCOCC2)ccc1-c1cc(OC)cc(OCC)c1F` [Compound 390]: the IC50 was 0.658 nM under setting [1] and less than 100 nM under setting [2].
